Laboratory results: patent publication US11166461B2, “Methods of controlling or preventing infestation of soybean plants by phytopathogenic microorganisms” (SYNGENTA PARTICIPATIONS AG, priority 2017, dated 2021)

Key:
Fusarium virguliforme [1] = assay: Seed treatments on soybean cv. Toliman infected with Fusarium virguliforme (growth chamber pot test); assay type: in vivo; conditions: 29 DAS; for % Disease severity: SDS index normalized to 100 for untreated infected control; for % Infected plants: soybean cv. Toliman
Procedure: Effect of Different Seed Treatments on Soybean Cv. Toliman Infected with Fusarium virguliforme:
Fusarium virguliforme/Soybean
5×5 soybean seeds cv. Toliman were sown into plastic pots. A mixture of 50% vol. sand and 50% vol. sterilized field soil was used as substrate. A layer of F. virguliforme infected millet seeds was placed below the soybean seeds. The test was kept in a growth chamber at 25° C. with 14 h artificial light; plants were irrigated up to field capacity. For the last five cultivation days, plants were kept at 18° C. The number of infected plants was counted 29 Days After Sowing (DAS).
Disease assessment was done visually 29 DAS, by classifying the plants according to a disease severity scale for SDS modified from Scandiani et al. (2011)* and J. Bond using classes from 0 to 4. The number of plants in each class were assessed. This allows calculating an “SDS Index” by multiplying the number of plants in each class with the disease severity (0, 1, 2, 3 or 4) and adding the products for all classes. SDS Index=n1×0+n2×1+n3×2+n4×3+n5×4. The SDS index is normalized to give an index of 100 for the untreated, infected control (UTCINF) and by calculating the normalized index for all treatments relative to the UTCINF. Shoot dry weight and shoot size was determined 29 DAS. • *Scandiani M., Ruberti D., Giorda L., Pioli R., Luque A., Bottai B., Ivancovich J., Aoki T., & O'Donnell K.: Comparison of inoculation methods for characterizing relative aggressiveness of two soybean sudden-death syndrome pathogens, Fusarium virguliforme and F. tucumaniae. Tropical Plant Pathology, vol. 36, 3, 133-140, 2011 Effect of Different Seed Treatments in the Field Against Sudden Death Syndrome (SDS) Caused by Fusarium virguliforme

Fusarium virguliforme [2] = assay: Seed treatments in the field against Sudden Death Syndrome (SDS) caused by Fusarium virguliforme, soybean field trial Clinton, Ill.; assay type: in vivo; conditions: seed treatment 0.15 mg ai/seed plus base treatment; for % efficacy based on disease incidence / % disease incidence: 107 days after planting; for % efficacy based on disease incidence: 100 − (100/(untreated/treated)); for % disease incidence: infected plants per plot; for Yield (bushel/acre) / % yield increase: 150 days after planting; for Yield (bushel/acre): full plot harvest; for % yield increase: versus untreated
Procedure: Disease assessment was done visually 29 DAS, by classifying the plants according to a disease severity scale for SDS modified from […] et al. (2011)* and J. Bond using classes from 0 to 4. The number of plants in each class were assessed. […] SDS Index=n1×0+n2×1+n3×2+n4×3+n5×4. The SDS index is normalized to give an index of 100 for the untreated, infected control ([…]) and by calculating the normalized index for all treatments relative to the […]. Shoot dry weight and shoot size was determined 29 […]., Ruberti D., Giorda L., Pioli R., Luque […]., Aoki T., & O'Donnell K.: Comparison of inoculation methods for characterizing relative aggressiveness of two soybean sudden-death syndrome pathogens, Fusarium virguliforme and F. tucumaniae. Tropical Plant Pathology, vol. 36, 3, 133-140, 2011 Effect of Different Seed Treatments in the Field Against Sudden Death Syndrome (SDS) Caused by Fusarium virguliforme A soybean field trial was carried out in Clinton, Ill., USA. This site had historically SDS occurrence reported. […] The disease occurred end of August and an assessment on disease incidence (counting of infected plants) was done Sep. 15, 2017. The yield of the grain data has been taken at the end of the season. [table] [table] [table]

| Structure (SMILES) | Shoot dry weight (Fusarium virguliforme [1]; seed treatment 10 g ai/100 kg) [g] | Shoot length in mm (Fusarium virguliforme [1]; seed treatment 10 g ai/100 kg) [mm] | % Disease severity (Fusarium virguliforme [1]; seed treatment 10 g ai/100 kg) [%] | % Infected plants (Fusarium virguliforme [1]; seed treatment 10 g ai/100 kg) [%] | Shoot dry weight (Fusarium virguliforme [1]; seed treatment 20 g ai/100 kg) [g] | Shoot length in mm (Fusarium virguliforme [1]; seed treatment 20 g ai/100 kg) [mm] | % Disease severity (Fusarium virguliforme [1]; seed treatment 20 g ai/100 kg) [%] | % Infected plants (Fusarium virguliforme [1]; seed treatment 20 g ai/100 kg) [%] | yield increase over the untreated check (Fusarium virguliforme [2]) [bushels per acre] | % efficacy based on disease incidence (Fusarium virguliforme [2]) [%] | % disease incidence (Fusarium virguliforme [2]) [B %] | Yield (bushel/acre) (Fusarium virguliforme [2]) [A bushel/acre] | % yield increase (Fusarium virguliforme [2]) [%] | yield increase (in words) (Fusarium virguliforme [2]) |
| --- | --- | --- | --- | --- | --- | --- | --- | --- | --- | --- | --- | --- | --- | --- |
| O=C(NC1CCC1c1ccc(Cl)cc1Cl)c1cccnc1C(F)(F)F (stereo not shown) [Compound 1] | 3.57 | 505 | 17 | 28 | 4.16 | 587 | 0 | 0 | 8.11 | 79.72 | 12.17 | 79.15 | 11.42 |  |
| O=C(NC1CCC1c1ccc(F)cc1Cl)c1ncccc1C(F)(F)F (stereo not shown) [Compound 4] | 3.89 | 541 | 5 | 8 | 3.77 | 526 | 5 | 8 |  |  |  |  |  |  |
| O=C(NC1CCC1c1ccc(F)cc1Cl)c1cccnc1C(F)(F)F (stereo not shown) [Compound 7] | 4.09 | 565 | 1 | 4 | 4.01 | 530 | 0 | 0 |  |  |  |  |  |  |
| O=C(NCCc1ncc(C(F)(F)F)cc1Cl)c1ccccc1C(F)(F)F [Fluopyram, reference compound] |  |  |  |  |  |  |  |  |  | 58.33 | 25.00 | 68.38 | −3.74 | did not increase the yield |
